Assays:
[1] = Solubility in water; assay type: physicochemical
[2] = biological target: T1, albumin (Bos taurus, UniProt P02769); test: Gelation of albumin solution in PBS by synthetic crosslinker after raising pH; design: species or system bovine; conditions: for time to soft hydrogel: 333 mg bovine serum albumin in 0.667 ml PBS; for Gel time: 27° C.
T1 construct: 333 mg bovine serum albumin was dissolved in 0.667 ml PBS
Description: As described above, a biological fluid (e.g., blood, serum, or fibrinogen rich fractions) may be used for reaction with crosslinkers or the monomers to form a crosslinked gel material. The material may be made in preparation for a medical procedure, e.g., immediately before or during the same, and used with a crosslinker or the monomer. […] The crosslinking reaction is accelerated by raising the pH of the solution. This can be achieved by contacting such composition with suitable alkaline buffer. Nonlimiting examples of suitable alkaline buffers include HEPES, sodium hydroxide, potassium hydroxide, calcium hydroxide, bicarbonate/NaOH pH 10, sodium borate pH 10, 1.5 M glycine/NaOH pH 10, 0.5-0.75M sodium carbonate/bicarbonate pH 10, 1M hydroxyethylepiperazine propane sulfonic acid (EPPS) pH 8.5, Trishydroxymethyl aminoethane sulphonic acid pH 8 and triethanol amine pH 7. The amount of alkaline buffer that is utilized should be enough to induce crosslinking. In some cases, the crosslinker is mixed with the alkaline buffer to raise the pH and then mixed with biological fluid to induce crosslinking or gelation. This method is least preferred due to hydrolysis of n-hydroxysuccimide esters at higher pH. The amine-succinimide ester reaction parameters such as number of reactive functional groups present on the biological fluid components, concentration of each ingredient, pH, temperature and pressures are adjusted such that gelation occurs within 60 minutes, more preferably with in 60 seconds and most preferably with 1 to 10 seconds.
pH was raised using 3M NaOH solution, at ambient temperature (27° C.) and mixed equal volumes. […] PEG 600 is polyethylene glycol with a molecular weight of 600.
[…] of […] was dissolved in 1 ml PBS. […] 20 microliter […] solution in PBS and 20 microliter albumin solution were mixed on a glass plate to form a uniform solution.
[…] of BTANHS was dispersed in 0.9 ml PBS. […] 20 microliter BTANHS dispersion in PBS and 20 microliter of albumin solution were mixed on a glass plate to form a uniform dispersion.
[…] of BTANHS was dispersed in 0.8 ml PBS containing 2% PLURONIC F127 (from BASF corporation USA) as a surfactant. Sonication or high speed stirring helps to form the emulsion. […] 20 microliter BTANHS emulsion in PBS and 20 microliter of albumin solution were mixed in a 1 ml plastic centrifuge tube to form a uniform solution.
Polyethylene glycol serves as an organic solvent. 200 mg bovine serum albumin was dissolved in 0.800 ml PBS.
20 microliter albumin solution and 20 microliter crosslinkers solution were mixed on a glass plate to form a uniform solution.

[3] = Degradation of crosslinked gel made with 8 arm PEG amine; assay type: physicochemical; conditions: gel with 8 arm PEG amine 20000; hydrolysis of ester bond of crosslinker
Description: 1 ml of each of these two solutions are mixed to produce a crosslinked gel. The crosslinked gel degrades due to hydrolysis of succinate ester bond in Hydroxylamine Succinate NHS ester.
0.12 g Hydroxylamine Glutarate NHS ester (Example 7) is dissolved in 5 ml phosphate buffered saline. 1 ml of each of two solutions are mixed to produce a crosslinked gel. The crosslinked gel degrades due to hydrolysis of glutarate ester bond in Hydroxylamine Glutarate NHS ester.

T1 sequence (P02769 25-607): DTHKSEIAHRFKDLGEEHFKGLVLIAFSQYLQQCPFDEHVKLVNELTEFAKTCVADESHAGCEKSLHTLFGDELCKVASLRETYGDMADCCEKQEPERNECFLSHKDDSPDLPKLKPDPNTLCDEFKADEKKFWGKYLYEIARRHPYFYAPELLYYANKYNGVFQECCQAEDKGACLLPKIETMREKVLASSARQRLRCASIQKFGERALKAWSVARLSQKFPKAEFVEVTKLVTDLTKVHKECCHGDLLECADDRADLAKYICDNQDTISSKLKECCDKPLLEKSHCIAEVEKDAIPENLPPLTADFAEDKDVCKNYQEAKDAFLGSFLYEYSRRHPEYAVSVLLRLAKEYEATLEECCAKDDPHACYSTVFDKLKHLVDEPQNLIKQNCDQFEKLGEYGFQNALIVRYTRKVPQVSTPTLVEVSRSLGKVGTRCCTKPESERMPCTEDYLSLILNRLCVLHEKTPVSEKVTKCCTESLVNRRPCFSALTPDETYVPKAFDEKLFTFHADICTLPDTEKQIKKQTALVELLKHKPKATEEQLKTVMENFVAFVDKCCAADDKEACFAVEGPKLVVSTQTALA

solubility in water [1]	time to soft hydrogel ([2]; crosslinker dispersion in PBS, 3M sodium hydroxide) [min]	time to soft hydrogel ([2]; crosslinker emulsion in PBS with 2% PLURONIC F127, triethanol amine) [min]	Notes (gel formed) ([2]; 5% albumin in PBS, crosslinker 10% in PBS)	Gel time ([2]; 5% albumin in PBS, crosslinker 10% in PBS, 3M NaOH, equal volumes) [min]	Notes (gel formed) ([2]; 5% albumin in PBS, crosslinker (10%) in PEG 600)	Gel time ([2]; 5% albumin in PBS, crosslinker (10%) in PEG 600, 3M NaOH) [min]	Notes (gel formed) ([2]; 10% albumin in PBS, crosslinker 10% in PBS)	Gel time ([2]; 10% albumin in PBS, crosslinker 10% in PBS, 3M NaOH, equal volumes) [min]	Notes (gel formed) ([2]; 20% albumin in PBS, crosslinker 10% in PBS)	Gel time ([2]; 20% albumin in PBS, crosslinker 10% in PBS, 3M NaOH, equal volumes) [min]	Notes (gel formed) ([2]; 20% albumin in PBS, crosslinker (10%) in PEG 600)	Gel time ([2]; 20% albumin in PBS, crosslinker (10%) in PEG 600, 3M NaOH) [min]	Notes (gel formed) ([2]; 30% albumin in PBS, crosslinker 10% in PBS)	Gel time ([2]; 30% albumin in PBS, crosslinker 10% in PBS, pH raised with 3M NaOH, equal volumes) [min]	Molecule	degradation of crosslinked gel [3]
Water Insoluble	5	3	Did not gel	>28	Did not gel	>25	Soft gel	18	Soft gel	3	Soft gel	5	Soft gel	1	O=C(CC(C(=O)ON1C(=O)CCC1=O)C(CC(=O)ON1C(=O)CCC1=O)C(=O)ON1C(=O)CCC1=O)ON1C(=O)CCC1=O (stereo not shown) [BTANHS]	–
–	–	–	–	–	–	–	–	–	–	–	–	–	–	–	Hydroxylamine Glutarate NHS Ester	degrades

— US7597882B2, “Protein crosslinkers, crosslinking methods and applications thereof” (Incept LLC, priority 2006, dated 2009)
